From patent publication US8859574B2 (IRM LLC, priority 2008, dated 2014)

Target: T1, IGF-1R Ba/F3 (Homo sapiens, UniProt P08069)
T1 construct: fused on or other part: TEL- (or BCR-) IGF-1R in Ba/F3: the kinase part holds the site
Test: Ba/F3 Cell Viability Inhibition Assay (IGF-1R Ba/F3)
Type: cell-based, murine
Settings: Tel-TK transformed Ba/F3 cells, 48 hours, Britelite luminescence
Outline: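 IL-3-independent murine Ba/F3 cells transformed with a TEL/BCR-fused IGF-1R kinase were seeded at 3750 cells/well and exposed to serially diluted compound for 48 h at 37 °C. Viability was read by Britelite luminescence. IC50 is the concentration giving 50% of DMSO-control viability, from a logistic fit.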

T1 sequence (P08069 999-1274 limits assumed): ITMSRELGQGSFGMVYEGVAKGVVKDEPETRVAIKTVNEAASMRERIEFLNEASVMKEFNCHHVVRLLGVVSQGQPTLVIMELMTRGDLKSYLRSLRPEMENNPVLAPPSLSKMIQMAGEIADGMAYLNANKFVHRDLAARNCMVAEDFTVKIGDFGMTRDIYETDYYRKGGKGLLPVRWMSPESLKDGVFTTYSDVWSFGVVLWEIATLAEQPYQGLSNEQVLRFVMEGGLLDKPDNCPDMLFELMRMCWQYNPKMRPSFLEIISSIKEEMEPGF

SMILES | IC50 [nM]
Cc1cc(Nc2nc(Nc3cc(C)c(C4CCN(CCC(=O)N5CCCC5)CC4)cc3F)ncc2Cl)n[nH]1 [Compound 242, 3-(4-(4-(5-chloro-4-(5-methyl-1H-pyrazol-3-ylamino)pyrimidin-2-ylamino)-5-fluoro-2-methylphenyl)piperidin-1-yl)-1-(pyrrolidin-1-yl)propan-1-one] | 60
CCNC1(C(=O)N2CCC(c3cc(F)c(Nc4ncc(Cl)c(Nc5cc(C)[nH]n5)n4)cc3C)CC2)CC1 [Compound 169, (4-(4-(5-chloro-4-(5-methyl-1H-pyrazol-3-ylamino)pyrimidin-2-ylamino)-5-fluoro-2-methylphenyl)piperidin-1-yl)(1-(ethylamino)cyclopropyl)methanone] | 4
Cc1cc(Nc2nc(Nc3cc(C)c(C4CCN(C(=O)N(C)C)CC4)cc3C)ncc2Cl)n[nH]1 [Compound 70, 4-(4-(5-chloro-4-(5-methyl-1H-pyrazol-3-ylamino)pyrimidin-2-ylamino)-2,5-dimethylphenyl)-N,N-dimethylpiperidine-1-carboxamide] | 6
Cc1cc(Nc2nc(Nc3cc(C)c(C4CCN(Cc5c(C)noc5C)CC4)cc3C)ncc2Cl)n[nH]1 [Compound 20, 5-chloro-N2-(4-(1-((3,5-dimethylisoxazol-4-yl)methyl)piperidin-4-yl)-2,5-dimethylphenyl)-N4-(5-methyl-1H-pyrazol-3-yl)pyrimidine-2,4-diamine] | 11
COc1cc(Nc2ncc(Cl)c(Nc3cc(C)[nH]n3)n2)c(C)cc1C1CCN(C(=O)CN(C)C)CC1 [Compound 76, 1-(4-(4-(5-chloro-4-(5-methyl-1H-pyrazol-3-ylamino)pyrimidin-2-ylamino)-2-methoxy-5-methylphenyl)piperidin-1-yl)-2-(dimethylamino)ethanone] | 9
Cc1cc(Nc2nc(Nc3cc(C)c(C4CCN(C(C)C(N)=O)CC4)cc3C)ncc2Cl)n[nH]1 (stereo not shown) [Compound 51, 2-(4-(4-(5-chloro-4-(5-methyl-1H-pyrazol-3-ylamino)pyrimidin-2-ylamino)-2,5-dimethylphenyl)piperidin-1-yl)propanamide] | 9
Cc1cc(Nc2nc(Nc3cc(C)c(C4CCN(C(C)C(N)=O)CC4)cc3F)ncc2C(F)(F)F)n[nH]1 (stereo not shown) [Compound 53, 2-(4-(5-fluoro-2-methyl-4-(4-(5-methyl-1H-pyrazol-3-ylamino)-5-(trifluoromethyl)pyrimidin-2-ylamino)phenyl)piperidin-1-yl)propanamide] | 78
Cc1cc(Nc2nc(Nc3cc(C)c(C4CCN(C(=O)NCCN(C)C)CC4)cc3F)ncc2Cl)n[nH]1 [Compound 109, 4-(4-(5-chloro-4-(5-methyl-1H-pyrazol-3-ylamino)pyrimidin-2-ylamino)-5-fluoro-2-methylphenyl)-N-(2-(dimethylamino)ethyl)piperidine-1-carboxamide] | 60
Cc1cc(Nc2nc(Nc3cc(C)c(C4CCN(C)CC4)cc3C)ncc2Cl)n[nH]1 [Compound 6, 5-chloro-N2-(2,5-dimethyl-4-(1-methylpiperidin-4-yl)phenyl)-N4-(5-methyl-1H-pyrazol-3-yl)pyrimidine-2,4-diamine] | 15
Cc1cc(Nc2nc(Nc3cc(C)c(C4CCCCN4C)cc3C)ncc2Cl)n[nH]1 (stereo not shown) [Compound 16, 5-chloro-N2-(2,5-dimethyl-4-(1-methylpiperidin-2-yl)phenyl)-N4-(5-methyl-1H-pyrazol-3-yl)pyrimidine-2,4-diamine] | 19
Cc1cc(C2CCN(CCO)CC2)c(C)cc1Nc1ncc(Cl)c(Nc2cc(C3CC3)[nH]n2)n1 [Compound 204, 2-(4-(4-(5-chloro-4-(5-cyclopropyl-1H-pyrazol-3-ylamino)pyrimidin-2-ylamino)-2,5-dimethylphenyl)piperidin-1-yl)ethanol] | 16
Cc1cc(Nc2nc(Nc3cc(C4CCNCC4)c(F)cc3C)ncc2Cl)n[nH]1 [Compound 8, 5-chloro-N2-(4-fluoro-2-methyl-5-(piperidin-4-yl)phenyl)-N4-(5-methyl-1H-pyrazol-3-yl)pyrimidine-2,4-diamine] | 1930
Cc1cc(Nc2ncc(Cl)c(Nc3cc(C4CC4)[nH]n3)n2)c(F)cc1C1CCN(CC(N)=O)CC1 [Compound 34, 2-(4-(4-(5-chloro-4-(5-cyclopropyl-1H-pyrazol-3-ylamino)pyrimidin-2-ylamino)-5-fluoro-2-methylphenyl)piperidin-1-yl)acetamide] | 49
Cc1cc(Nc2nc(Nc3cc(C(F)(F)F)c(N4CCN(C)CC4)cc3F)ncc2Cl)n[nH]1 [Compound 157, 5-chloro-N^2-(2-fluoro-4-(4-methylpiperazin-1-yl)-5-(trifluoromethyl)phenyl)-N^4-(5-methyl-1H-pyrazol-3-yl)pyrimidine-2,4-diamine] | 75
Cc1cc(Nc2nc(Nc3cc(C)c(C4CCN(Cc5ccccn5)CC4)cc3F)ncc2Cl)n[nH]1 [Compound 281, 5-chloro-N2-(2-fluoro-5-methyl-4-(1-(pyridin-2-ylmethyl)piperidin-4-yl)phenyl)-N4-(5-methyl-1H-pyrazol-3-yl)pyrimidine-2,4-diamine] | 87
Cc1cc(Nc2nc(Nc3cc(C)c(N4CCNCC4=O)cc3C)ncc2Cl)n[nH]1 [Compound 155, 1-(4-(5-chloro-4-(5-methyl-1H-pyrazol-3-ylamino)pyrimidin-2-ylamino)-2,5-dimethylphenyl)piperazin-2-one] | 1650
Cc1cc(C2CCN(C(=O)CN(C)C)CC2)c(C)cc1Nc1ncc(Cl)c(Nc2cc(C3CC3)[nH]n2)n1 [Compound 186, 1-(4-(4-(5-chloro-4-(5-cyclopropyl-1H-pyrazol-3-ylamino)pyrimidin-2-ylamino)-2,5-dimethylphenyl)piperidin-1-yl)-2-(dimethylamino)ethanone] | 12
Cc1cc(Nc2nc(Nc3cc(C)c(C4CCN(C)CC4)cc3OC(C)C)ncc2C)n[nH]1 [Compound 5, N2-(2-isopropoxy-5-methyl-4-(1-methylpiperidin-4-yl)phenyl)-5-methyl-N4-(5-methyl-1H-pyrazol-3-yl)pyrimidine-2,4-diamine] | 805
CCOC(=O)N1CCC(c2cc(C)c(Nc3ncc(Cl)c(Nc4cc(C)[nH]n4)n3)cc2C)CC1 [Compound 162, ethyl 4-(4-(5-chloro-4-(5-methyl-1H-pyrazol-3-ylamino)pyrimidin-2-ylamino)-2,5-dimethylphenyl)piperidine-1-carboxylate] | 13
Cc1cc(Nc2nc(Nc3cc(Cl)c(C4CCN(C(=O)CN5CCOCC5)CC4)cc3C)ncc2Cl)n[nH]1 [Compound 95, 1-(4-(2-chloro-4-(5-chloro-4-(5-methyl-1H-pyrazol-3-ylamino)pyrimidin-2-ylamino)-5-methylphenyl)piperidin-1-yl)-2-morpholinoethanone] | 6
Cc1cc(Nc2nc(Nc3cc(C)c(C4CCN(C(=O)[C@H]5C[C@@H](O)CN5C)CC4)cc3C)ncc2Cl)n[nH]1 [Compound 123, (4-(4-(5-chloro-4-(5-methyl-1H-pyrazol-3-ylamino)pyrimidin-2-ylamino)-2,5-dimethylphenyl)piperidin-1-yl)((2R,4R)-4-hydroxy-1-methylpyrrolidin-2-yl)methanone] | 48
Cc1cc(Nc2ncc(Cl)c(Nc3cc[nH]n3)n2)c(OC(C)C)cc1C1CCN(C)CC1 [Compound 161, 5-chloro-N2-(2-isopropoxy-5-methyl-4-(1-methylpiperidin-4-yl)phenyl)-N4-(1H-pyrazol-3-yl)pyrimidine-2,4-diamine] | 332
